Tests used:
Assay type in all cases: in vivo, C57BL/6 male mice
Bcl-2 = test: Western blotting of liver protein extract: Bcl-2; conditions: high-fat diet mice, groups 3~5 (5, 15, 25 mg/kg/day i.p.), normalized with tubulin, compared with group 2
Experimental: (§1) The experiments using the experimental mice were conducted according to the IACUC-100-12 protocol approved by Academia Sinica Institutional Animal Care and Utilization Committee (IACUC) ethics committee. All C57BL/6 male mice (6-weeks-old) were randomly divided into 5 groups that contain 8 mice in each. These mice were individually housed in a room temperature at 24±2° C. and 55±10% humidity with 12 hours of light cycle. Herein, the control mice in the group 1 were fed with standard laboratory diet and administrated 0.9% normal saline by intra-peritoneal injection. […]
(§2) Protein concentration of extract was determined by Lowry's protein assay method, first. […]
(§3) The protein extract of the mouse liver of the each group was prepared in example 4 and then to determine the expressions of apoptosis and survive related proteins using western blotting of example 5. The expression pattern of the apoptosis and survive related proteins were shown in FIG. 7 to FIG. 12, wherein the expression of tubulin was utilized as the internal control in western blot analysis in FIG. 7, FIG. 9 and FIG. 11, and the relative expression levels of the apoptosis and survive related proteins in mouse liver were normalized with tubulin for quantification in FIG. 8, FIG. 10 and FIG. 12. […]

cytochrome c = test: Western blotting of liver protein extract: cytochrome c; conditions: high-fat diet mice, groups 3~5 (5, 15, 25 mg/kg/day i.p.), normalized with tubulin, compared with group 2
Experimental: as §1, §2, §3

PPARα = test: Western blotting of liver protein extract: PPARα; conditions: high-fat diet mice, groups 3~5 (5, 15, 25 mg/kg/day i.p.), normalized with tubulin, compared with group 2
Experimental: as §1, with “injection. In the group 2, the mice were fed with high-fat diet to induce the fatty liver, and administrated 0.9% normal saline by intra-peritoneal injection.” for “injection.”
as §2
According to method in example 5, protein extract of mouse liver in each group prepared in example 4 was subjected to determine the expression pattern and relative level of PPARα. The results were shown in FIG. 15 and FIG. 16, wherein the expression of tubulin was utilized as the internal control in FIG. 15 and the quantified expression level of PPARα in the mouse livers of the each group was calculated with normalized with quantified expression level of tubulin in FIG. 16.

[1] = tested on: matrix metalloproteinase-9; test: Western blotting of liver protein extract: MMP-9 (hepatic fibrosis biomarker); conditions: high-fat diet mice, groups 3~5 (5, 15, 25 mg/kg/day i.p.), normalized with tubulin, compared with group 2
Experimental: as §1, with “injection. In the group 2, the mice were fed with high-fat diet to induce the fatty liver, and administrated 0.9% normal saline by intra-peritoneal injection.” for “injection.”
as §2
According to method in example 5, protein extract of mouse liver in the each group prepared in example 4 was subjected to determine the expression pattern and relative level of matrix metalloproteinase-9 (hereafter referred to as MMP 9). The results were shown in FIG. 13 and FIG. 14, wherein in FIG. 13, the expression of tubulin was utilized as the internal control in the western blotting and in FIG. 14, the quantified expression level of MMP-9 in the mouse liver of the each group was calculated with normalized with quantified expression level of tubulin.

Caspase-8 = test: Western blotting of liver protein extract: Caspase-8; conditions: high-fat diet mice, groups 3~5 (5, 15, 25 mg/kg/day i.p.), normalized with tubulin, compared with group 2
Experimental: as §1, §2, §3

[2] = LDL-cholesterol and triglyceride in blood plasma of high-fat diet fed mice; conditions: high-fat diet mice, 5, 15 or 25 mg/kg/day intra-peritoneal (groups 3~5), compared with group 2 (high-fat diet, saline)
Experimental: as §1, with “injection. In the group 2, the mice were fed with high-fat diet to induce the fatty liver, and administrated 0.9% normal saline by intra-peritoneal injection. In the group 3, the mice were fed with high-fat diet and administrated with peptide of SEQ ID No.1 by intra-peritoneal injected with the dose of 5 mg/kg/day. In the group 4, the mice were fed with high-fat diet and administrated with peptide of SEQ ID No.1 by intra-peritoneal injected with the dose of 15 mg/kg/day.” for “injection.”
The blood samples collected from the mice in each group indicated in example 1 into the microcentrifuge tubes containing heparin (10 μL, 1000 IU/ml). […] The concentration of low density lipoprotein-cholesterol (hereafter referred to as LDL) and triglyceride in the isolated blood plasma from the mice in the each group were determined by using the commercial detection kit.

IGFIR = test: Western blotting of liver protein extract: IGFIR; conditions: high-fat diet mice, groups 3~5 (5, 15, 25 mg/kg/day i.p.), normalized with tubulin, compared with group 2
Experimental: as §1, §2, §3

PI3K = test: Western blotting of liver protein extract: PI3K; conditions: high-fat diet mice, groups 3~5 (5, 15, 25 mg/kg/day i.p.), normalized with tubulin, compared with group 2
Experimental: as §1, §2, §3

IL-6 = test: Western blotting of liver protein extract: IL-6; conditions: high-fat diet mice, groups 3~5 (5, 15, 25 mg/kg/day i.p.), normalized with tubulin, compared to group 2
Experimental: as §1, with “injection. In the group 2, the mice were fed with high-fat diet to induce the fatty liver, and administrated 0.9% normal saline by intra-peritoneal injection.” for “injection.”
as §2
(§4) According to the methods in example 4 and 5, preparing the protein extract of mouse liver in the each group and then the expression pattern of TNFα and IL-6 in mouse liver of the each group was determined by western blotting. The results were shown in FIG. 5 and FIG. 6, wherein the expression of tubulin was utilized as internal control in FIG. 5 and FIG. 6 and the relative amount of TNFα and IL-6 in mouse liver of the each group were separately quantified and normalization with the internal control.

Bax = test: Western blotting of liver protein extract: Bax; conditions: high-fat diet mice, groups 3~5 (5, 15, 25 mg/kg/day i.p.), normalized with tubulin, compared with group 2
Experimental: as §1, §2, §3

TNFα = test: Western blotting of liver protein extract: TNFα; conditions: high-fat diet mice, groups 3~5 (5, 15, 25 mg/kg/day i.p.), normalized with tubulin, compared to group 2
Experimental: as §1, with “injection. In the group 2, the mice were fed with high-fat diet to induce the fatty liver, and administrated 0.9% normal saline by intra-peritoneal injection.” for “injection.”
as §2, §4

Caspase-9 = test: Western blotting of liver protein extract: Caspase-9; conditions: high-fat diet mice, groups 3~5 (5, 15, 25 mg/kg/day i.p.), normalized with tubulin, compared with group 2
Experimental: as §1, §2, §3

mouse liver = test: Histopathological examination (H&E) of mouse liver, high-fat diet fed mice; conditions: high-fat diet mice, 5, 15 or 25 mg/kg/day intra-peritoneal (groups 3~5)
Experimental: The experiments using the experimental mice were conducted according to the IACUC-100-12 protocol approved by Academia Sinica Institutional Animal Care and Utilization Committee (IACUC) ethics committee. All C57BL/6 male mice (6-weeks-old) were randomly divided into 5 groups that contain 8 mice in each. These mice were individually housed in a room temperature at 24±2° C. and 55±10% humidity with 12 hours of light cycle. Herein, the control mice in the group 1 were fed with standard laboratory diet and administrated 0.9% normal saline by intra-peritoneal injection. In the group 2, the mice were fed with high-fat diet to induce the fatty liver, and administrated 0.9% normal saline by intra-peritoneal injection. In the group 3, the mice were fed with high-fat diet and administrated with peptide of SEQ ID No.1 by intra-peritoneal injected with the dose of 5 mg/kg/day. In the group 4, the mice were fed with high-fat diet and administrated with peptide of SEQ ID No.1 by intra-peritoneal injected with the dose of 15 mg/kg/day. In the group 5, the mice were fed with high-fat diet and administrated with peptide of SEQ ID No.1 by intra-peritoneal injected with the dose of 25 mg/kg/day. The inter-peritoneal injections were performed on these mice between third to sixth weeks of culture.
The livers were excised from the mice of the each group; soaked in formalin; dehydrated by passing consecutively through […] and then embedded in paraffin wax. The each embedded liver tissue block was cut into […] sections and deparaffinization by soaking in xylene. The histological section of the mouse liver in the each group was consecutively stained by hematoxylin and eosin (H&E) and rinsed with water. The photomicrographs of the histological section of the mouse liver in the each group obtained using Zeiss Axiophot microscope (Thornwood Co, USA.) were shown in FIG. 3 and FIG. 4.

Caspase-3 = test: Western blotting of liver protein extract: Caspase-3; conditions: high-fat diet mice, groups 3~5 (5, 15, 25 mg/kg/day i.p.), normalized with tubulin, compared with group 2
Experimental: as §1, §2, §3

AKT = test: Western blotting of liver protein extract: AKT; conditions: high-fat diet mice, groups 3~5 (5, 15, 25 mg/kg/day i.p.), normalized with tubulin, compared with group 2
Experimental: as §1, §2, §3

## peptide of SEQ ID No.1: isolated peptide containing an amino acid sequence of SEQ ID No.1; obtainable by extraction, hydrolyzation or chemical synthesis (VHVV)
Bcl-2
  expression level of Bcl-2 in mouse liver: elevated
Cytochrome c
  expression level of cytochrome c (pro-apoptotic factor) in mouse liver: obviously suppressed
PPARα
  expression level of PPARα in mouse liver: obviously increased
[1]
  expression level of MMP-9 in mouse liver: obviously suppressed
Caspase-8
  expression level of Caspase-8 (pro-apoptotic factor) in mouse liver: obviously suppressed
[2]
  concentration of LDL in blood plasma: obviously decreased
  concentration of triglyceride in blood plasma: obviously decreased
IGFIR
  expression level of survival related protein IGFIR (pIGF-IR) in mouse liver: obviously higher
PI3K
  expression level of survival related protein PI3K in mouse liver: obviously higher
IL-6
  expression level of IL-6 in mouse liver: obviously reduced
Bax
  expression level of Bax (pro-apoptotic factor) in mouse liver: obviously suppressed
TNFα
  expression level of TNFα in mouse liver: obviously reduced
Caspase-9
  expression level of Caspase-9 (pro-apoptotic factor) in mouse liver: obviously suppressed
Mouse liver; compared with group 2
  fat accumulation in the mouse liver (H&E): obviously decreased
Mouse liver; group 2 filled with giant oil drops
  giant oil drops in the mouse liver (H&E): never was observed the giant oil drop
Mouse liver; group 2 loosely arranged
  arrangement of hepatocytes in the mouse liver (H&E): tightly arranged hepatocytes
Caspase-3
  expression level of Caspase-3 (pro-apoptotic factor) in mouse liver: obviously suppressed
AKT
  expression level of survival related protein AKT (pAKT) in mouse liver: obviously higher

Reference: patent US20150337010A1, “Method for treating or preventing liver related diseases” (Tunghai University, priority 2014, published 2015)
